# Measured values as given in article PMC9481151, “Discovery of new symmetrical and asymmetrical nitrile-containing 1,4-dihydropyridine derivatives as dual kinases and P-glycoprotein inhibitors: synthesis, in vitro assays, and in silico studies” (Journal of Enzyme Inhibition and Medicinal Chemistry, 2022).
# Tests used:
# MDA-MB-468 = experiment: NCI single dose (10 µM) SRB screen; format: cell-based, human; details: breast cancer, 48 h
# SF-539 = experiment: NCI single dose (10 µM) SRB screen; format: cell-based, human; details: CNS cancer, 48 h
# MALME-3M = experiment: NCI single dose (10 µM) SRB screen; format: cell-based, human; details: melanoma, 48 h
# CCRF-CEM = experiment: NCI single dose (10 µM) SRB screen; format: cell-based, human; details: leukaemia, 48 h
# SN12C = experiment: NCI single dose (10 µM) SRB screen; format: cell-based, human; details: renal cancer, 48 h
# HT29 = experiment: NCI single dose (10 µM) SRB screen; format: cell-based, human; details: colon cancer, 48 h
# NCI/ADR-RES = experiment: NCI single dose (10 µM) SRB screen; format: cell-based, human; details: ovarian cancer, 48 h
# NCI-H322M = experiment: NCI single dose (10 µM) SRB screen; format: cell-based; details: non-small cell lung cancer, 48 h
# PC-3 = experiment: NCI single dose (10 µM) SRB screen; format: cell-based, human; details: prostate cancer, 48 h
# NCI-H23 = experiment: NCI single dose (10 µM) SRB screen; format: cell-based, human; details: non-small cell lung cancer, 48 h
# Staphylococcus aureus = experiment: Agar well diffusion method
# EKVX = experiment: NCI single dose (10 µM) SRB screen; format: cell-based, human; details: non-small cell lung cancer, 48 h
# SNB-19 = experiment: NCI single dose (10 µM) SRB screen; format: cell-based, human; details: CNS cancer, 48 h
# HOP-92 = experiment: NCI single dose (10 µM) SRB screen; format: cell-based, human; details: non-small cell lung cancer, 48 h
# HCC-2998 = experiment: NCI single dose (10 µM) SRB screen; format: cell-based, human; details: colon cancer, 48 h
# Bacillus subtilis = experiment: Agar well diffusion method
# UO-31 = experiment: NCI single dose (10 µM) SRB screen; format: cell-based, human; details: renal cancer, 48 h
# IGROV1 = experiment: NCI single dose (10 µM) SRB screen; format: cell-based, human; details: ovarian cancer, 48 h
# SK-MEL-2 = experiment: NCI single dose (10 µM) SRB screen; format: cell-based, human; details: melanoma, 48 h
# HL-60(TB) = experiment: NCI single dose (10 µM) SRB screen; format: cell-based, human; details: leukaemia, 48 h
# COLO 205 = experiment: NCI single dose (10 µM) SRB screen; format: cell-based, human; details: colon cancer, 48 h
# HCT-116 = experiment: NCI single dose (10 µM) SRB screen; format: cell-based, human; details: colon cancer, 48 h
# HCT-15 = experiment: NCI single dose (10 µM) SRB screen; format: cell-based, human; details: colon cancer, 48 h
# NCI-H522 = experiment: NCI single dose (10 µM) SRB screen; format: cell-based, human; details: non-small cell lung cancer, 48 h
# SR = experiment: NCI single dose (10 µM) SRB screen; format: cell-based, human; details: leukaemia, 48 h
# SF-295 = experiment: NCI single dose (10 µM) SRB screen; format: cell-based, human; details: CNS cancer, 48 h
# Escherichia coli = experiment: Agar well diffusion method
# U251 = experiment: NCI single dose (10 µM) SRB screen; format: cell-based, human; details: CNS cancer, 48 h
# M14 = experiment: NCI single dose (10 µM) SRB screen; format: cell-based, human; details: melanoma, 48 h
# Pseudomonas aeruginosa = experiment: Agar well diffusion method
# A498 = experiment: NCI single dose (10 µM) SRB screen; format: cell-based, human; details: renal cancer, 48 h
# NCI-H460 = experiment: NCI single dose (10 µM) SRB screen; format: cell-based, human; details: non-small cell lung cancer, 48 h
# SF-268 = experiment: NCI single dose (10 µM) SRB screen; format: cell-based, human; details: CNS cancer, 48 h
# ACHN = experiment: NCI single dose (10 µM) SRB screen; format: cell-based, human; details: renal cancer, 48 h
# KM12 = experiment: NCI single dose (10 µM) SRB screen; format: cell-based, human; details: colon cancer, 48 h
# TK-10 = experiment: NCI single dose (10 µM) SRB screen; format: cell-based, human; details: renal cancer, 48 h
# MOLT-4 = experiment: NCI single dose (10 µM) SRB screen; format: cell-based, human; details: leukaemia, 48 h
# A549/ATCC = experiment: NCI single dose (10 µM) SRB screen; format: cell-based, human; details: non-small cell lung cancer, 48 h
# UACC-62 = experiment: NCI single dose (10 µM) SRB screen; format: cell-based, human; details: melanoma, 48 h
# 786-0 = experiment: NCI single dose (10 µM) SRB screen; format: cell-based, human; details: renal cancer, 48 h
# T-47D = experiment: NCI single dose (10 µM) SRB screen; format: cell-based, human; details: breast cancer, 48 h
# SNB-75 = experiment: NCI single dose (10 µM) SRB screen; format: cell-based, human; details: CNS cancer, 48 h
# CAKI-1 = experiment: NCI single dose (10 µM) SRB screen; format: cell-based, human; details: renal cancer, 48 h
# OVCAR-5 = experiment: NCI single dose (10 µM) SRB screen; format: cell-based, human; details: ovarian cancer, 48 h
# SK-MEL-28 = experiment: NCI single dose (10 µM) SRB screen; format: cell-based, human; details: melanoma, 48 h
# K-562 = experiment: NCI single dose (10 µM) SRB screen; format: cell-based, human; details: leukaemia, 48 h
# MDA-MB-435 = experiment: NCI single dose (10 µM) SRB screen; format: cell-based, human; details: melanoma, 48 h
# HOP-62 = experiment: NCI single dose (10 µM) SRB screen; format: cell-based, human; details: non-small cell lung cancer, 48 h
# SK-OV-3 = experiment: NCI single dose (10 µM) SRB screen; format: cell-based, human; details: ovarian cancer, 48 h
# UACC-257 = experiment: NCI single dose (10 µM) SRB screen; format: cell-based, human; details: melanoma, 48 h
# RPMI-8226 = experiment: NCI single dose (10 µM) SRB screen; format: cell-based, human; details: leukaemia, 48 h
# DU-145 = experiment: NCI single dose (10 µM) SRB screen; format: cell-based, human; details: prostate cancer, 48 h
# MDA-MB-231 = experiment: NCI single dose (10 µM) SRB screen; format: cell-based, human; details: breast cancer, 48 h
structure (smiles),measurement,setting,value
"CCOC(=O)C1=C(C)NC(C)=C(C(=O)OCC)C1c1cccc(C#N)c1 [Compound 1b, Diethyl 4-(3-cyanophenyl)-2,6-dimethyl-1,4-dihydropyridine-3,5-dicarboxylate]",GI% MDA-MB-468,MDA-MB-468,22%
same,GI% SF-539,SF-539,– (Only GI% ≥ 10 are shown)
same,GI% MALME-3M,MALME-3M,– (Only GI% ≥ 10 are shown)
same,GI% CCRF-CEM,CCRF-CEM,– (Only GI% ≥ 10 are shown)
same,GI% SN12C,SN12C,– (Only GI% ≥ 10 are shown)
same,GI% HT29,HT29,– (Only GI% ≥ 10 are shown)
same,GI% NCI/ADR-RES,NCI/ADR-RES,– (Only GI% ≥ 10 are shown)
same,GI% NCI-H322M,NCI-H322M,– (Only GI% ≥ 10 are shown)
same,GI% PC-3,PC-3,20%
same,GI% NCI-H23,NCI-H23,– (Only GI% ≥ 10 are shown)
same,zone of inhibition at 1000 µg/mL,"Staphylococcus aureus; Staphylococcus aureus, 24 h, read-out: Diameter of inhibition zone, S. aureus",14 mm
same,"% activity index, S. aureus",Staphylococcus aureus; relative to ciprofloxacin,58.3%
same,GI% EKVX,EKVX,– (Only GI% ≥ 10 are shown)
same,GI% SNB-19,SNB-19,– (Only GI% ≥ 10 are shown)
same,GI% HOP-92,HOP-92,10%
same,GI% HCC-2998,HCC-2998,– (Only GI% ≥ 10 are shown)
same,zone of inhibition at 1000 µg/mL,"Bacillus subtilis; Bacillus subtilis, 24 h, read-out: Diameter of inhibition zone, B. subtilis",9 mm
same,"% activity index, B. subtilis",Bacillus subtilis; relative to ciprofloxacin,39.1%
same,GI% UO-31,UO-31,13%
same,GI% IGROV1,IGROV1,– (Only GI% ≥ 10 are shown)
same,GI% SK-MEL-2,SK-MEL-2,– (Only GI% ≥ 10 are shown)
same,GI% HL-60(TB),HL-60(TB),13%
same,GI% COLO 205,COLO 205,– (Only GI% ≥ 10 are shown)
same,GI% HCT-116,HCT-116,11%
same,GI% HCT-15,HCT-15,23%
same,GI% NCI-H522,NCI-H522,12%
same,GI% SR,SR,48%
same,GI% SF-295,SF-295,– (Only GI% ≥ 10 are shown)
same,zone of inhibition at 1000 µg/mL,"Escherichia coli; Escherichia coli, 24 h, read-out: Diameter of inhibition zone, E. coli",7 mm
same,"% activity index, E. coli",Escherichia coli; relative to ciprofloxacin,26.9%
same,GI% U251,U251,– (Only GI% ≥ 10 are shown)
same,GI% M14,M14,– (Only GI% ≥ 10 are shown)
same,zone of inhibition at 1000 µg/mL,"Pseudomonas aeruginosa; Pseudomonas aeruginosa, 24 h, read-out: Diameter of inhibition zone, P. aeruginosa",10 mm
same,"% activity index, P. aeruginosa",Pseudomonas aeruginosa; relative to ciprofloxacin,43.5%
same,GI% A498,A498,– (Only GI% ≥ 10 are shown)
same,GI% NCI-H460,NCI-H460,– (Only GI% ≥ 10 are shown)
same,GI% SF-268,SF-268,– (Only GI% ≥ 10 are shown)
same,GI% ACHN,ACHN,– (Only GI% ≥ 10 are shown)
same,GI% KM12,KM12,27%
same,GI% TK-10,TK-10,– (Only GI% ≥ 10 are shown)
same,GI% MOLT-4,MOLT-4,– (Only GI% ≥ 10 are shown)
same,GI% A549/ATCC,A549/ATCC,– (Only GI% ≥ 10 are shown)
same,GI% UACC-62,UACC-62,20%
same,GI% 786-0,786-0,– (Only GI% ≥ 10 are shown)
same,GI% T-47D,T-47D,23%
same,GI% SNB-75,SNB-75,38%
same,GI% CAKI-1,CAKI-1,31%
same,GI% OVCAR-5,OVCAR-5,– (Only GI% ≥ 10 are shown)
same,GI% SK-MEL-28,SK-MEL-28,– (Only GI% ≥ 10 are shown)
same,GI% K-562,K-562,43%
same,GI% MDA-MB-435,MDA-MB-435,42%
same,GI% HOP-62,HOP-62,– (Only GI% ≥ 10 are shown)
same,GI% SK-OV-3,SK-OV-3,– (Only GI% ≥ 10 are shown)
same,GI% UACC-257,UACC-257,– (Only GI% ≥ 10 are shown)
same,GI% RPMI-8226,RPMI-8226,– (Only GI% ≥ 10 are shown)
same,GI% DU-145,DU-145,– (Only GI% ≥ 10 are shown)
same,GI% MDA-MB-231,MDA-MB-231,– (Only GI% ≥ 10 are shown)
